These are literature values, as cited in patent publication US7282487B2, “Method for treating bacterial infections in horses or pigs with tilmicosin” (priority 2004, dated 2007).

`CC[C@H]1OC(=O)C[C@@H](O)[C@H](C)[C@@H](OC2OC(C)C(O)C(N(C)C)C2O)[C@@H](CCN2C[C@@H](C)C[C@H](C)C2)C[C@@H](C)C(=O)/C=C/C(C)=C/[C@@H]1COC1OC(C)C(O)C(OC)C1OC` (stereo partly shown) [tilmicosin, Tilmicosin]: the “solubility in aqueous solutions” value was “moderately soluble”.
